“Also recorded” adds a separate entry of the source.
Assays:
androgen receptor [1] = molecular target: T1, androgen receptor (Homo sapiens, UniProt P10275); test: In vitro inhibition of the androgen receptor-DHT interaction; type: binding; parameters: from tissue; conditions: for % of Androgen Receptor Inhibition: DHT; for Femtamoles of DHT Bound/mg Protein: corrected for nonspecific binding, 0:1 = 78
T1 sequence (P10275 1-920): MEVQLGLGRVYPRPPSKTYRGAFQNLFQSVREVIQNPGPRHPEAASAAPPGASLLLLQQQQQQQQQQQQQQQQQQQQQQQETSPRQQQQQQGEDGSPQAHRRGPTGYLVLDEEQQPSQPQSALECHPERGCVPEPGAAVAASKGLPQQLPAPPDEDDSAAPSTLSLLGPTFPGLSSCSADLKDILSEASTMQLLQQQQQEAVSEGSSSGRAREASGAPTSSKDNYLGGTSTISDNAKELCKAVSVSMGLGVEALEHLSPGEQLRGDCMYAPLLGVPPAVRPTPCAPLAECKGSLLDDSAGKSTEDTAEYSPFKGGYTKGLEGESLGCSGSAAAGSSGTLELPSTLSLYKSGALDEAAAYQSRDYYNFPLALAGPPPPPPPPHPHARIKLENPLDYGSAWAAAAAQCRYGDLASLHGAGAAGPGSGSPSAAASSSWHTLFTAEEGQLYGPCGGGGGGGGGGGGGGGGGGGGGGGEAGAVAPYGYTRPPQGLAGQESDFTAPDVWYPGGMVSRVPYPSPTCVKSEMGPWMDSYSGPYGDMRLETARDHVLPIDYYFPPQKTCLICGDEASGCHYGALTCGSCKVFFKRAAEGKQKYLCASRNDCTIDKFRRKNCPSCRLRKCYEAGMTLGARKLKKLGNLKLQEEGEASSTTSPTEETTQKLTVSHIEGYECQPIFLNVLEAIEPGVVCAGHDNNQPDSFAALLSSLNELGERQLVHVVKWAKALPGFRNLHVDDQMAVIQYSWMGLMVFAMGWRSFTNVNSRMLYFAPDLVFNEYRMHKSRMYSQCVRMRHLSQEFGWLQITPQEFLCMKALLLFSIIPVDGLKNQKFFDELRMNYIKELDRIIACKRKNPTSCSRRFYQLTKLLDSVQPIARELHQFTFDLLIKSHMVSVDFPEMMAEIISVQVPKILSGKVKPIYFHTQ

androgen receptor [2] = molecular target: T1, androgen receptor; test: In vitro inhibition of the androgen receptor-testosterone interaction; type: binding; parameters: from tissue; conditions: for inhibition of the androgen receptor site: 10 molecules of compound for one molecule of testosterone; for Femtamoles of Testosterone Bound/mg Protein / % of Androgen Receptor Inhibition: ratio of compound to androgen 20:1; for Femtamoles of Testosterone Bound/mg Protein: corrected for nonspecific binding, 0:1 = 3.6; for % of Androgen Receptor Inhibition: testosterone
Protocol: Competitive inhibition experiments were performed using compound IV in the second technique described above.

progesterone receptor = test: Progesterone receptor inhibition, Trichophyton; type: binding
androgen receptor site = molecular target: T2, androgen receptor site (Homo sapiens, UniProt P10275); test: % inhibition of labelled androgen (3H DHT) binding to caesarean section skin from hirsute patients
T2 construct: the test utilizing caesarean section skin from hirsute patients; from tissue; host or cells: caesarean section skin from hirsute patients
T2 sequence (P10275 1-920): T1 sequence (P10275 1-920)

androgen receptor sites = molecular target: T3, androgen receptor sites (Homo sapiens, UniProt P10275); test: Anti-androgenic action in similar tests
T3 construct: other tests of the document use human skin, keloid and fibroblasts with 3H-DHT
Text: The test procedures set forth in Examples 54-58 may be repeated with the compound 2-(5-methoxyhept-1-yl)bicyclo[3.3.0]octan-7-one {hexahydro-4-(5-methoxyheptyl)-2(1H)-pentalenone}.

Fusarium = test: Effects on Fusarium growth and fungal hormone production; type: cell-based
Text: It is also known that these fungi elaborate zearalenone and zearalanol which are toxic substances to livestock ingesting the grain rotted by them. Ingestion of these toxic substances is known to influence the prepubertal development of pigs (Berger et al., Journal of Animal Science, Vol. 53, pages 1559-1564 (1981). Zearalenone and zearalanol also affect milk production, breeding and pregnancy in such large livestock animals as pigs, cows and horses (Young et al., Journal of Animal Science, Vol. 54, pages 976-982). The Fusarium family of fungi also adversely affect chicken, turkey and other poultry animal populations (Allen et al., Poultry Science, Vol. 60, pages 124-131 (1981); Mirocha et al., Poultry Science, Vol. 60, pages 19-25 (1981)). Because of the importance of livestock production, the effect of the anti-androgens of this invention on these fungi was extensively studied. There is no currently available satisfactory treatment for the fungi nor the fungal hormones they elaborate (i.e., zearalenone and zearalanol).

human fibroblast cells [3] = test: Collagen production by fibroblast cells; type: cell-based; conditions: treated vs control cells
Text: (§1) Experiments generally following the methodology of Boote et al., Biochimica et Biophysica Acta, Volume 607, pages 145-160 (1980), have shown that while control human fibroblast cells have copious collagen production, treatment with the compounds of the invention provides human fibroblast cells with suppressed collagen production and with an about 30% increase in elastin production over control cells.
(§2) Wrinkling of the skin involves the decreased formation of elastin and the increased formation of collagen by supporting cells, predominantly the fibroblasts.

human fibroblast cells [4] = test: Elastin production by fibroblast cells; type: cell-based; conditions: for formation of elastin: Example 45; for increase in elastin production over control cells: treated vs control (non-treated) fibroblast cells
Text: as §1, §2

[5] = ratio of compound to androgen 10:1
[6] = ratio of compound to androgen 100:1
[7] = ratio of compound to androgen 1000:1
[8] = ratio of compound to androgen 10000:1

Compound | % of Androgen Receptor Inhibition (androgen receptor [1]; [5]) [%] | % of Androgen Receptor Inhibition (androgen receptor [1]; [6]) [%] | Femtamoles of DHT Bound/mg Protein (androgen receptor [1]; [5]) [Femtamoles/mg Protein] | Femtamoles of DHT Bound/mg Protein (androgen receptor [1]; [6]) [Femtamoles/mg Protein] | inhibition of the androgen receptor site (androgen receptor [2]) | Femtamoles of Testosterone Bound/mg Protein (androgen receptor [2]) [Femtamoles/mg Protein] | % of Androgen Receptor Inhibition (androgen receptor [2]) [%] | % Inhibition of 3H Androgen Binding to Skin (androgen receptor site; [5]) [%] | % Inhibition of 3H Androgen Binding to Skin (androgen receptor site; [6]) [%] | % Inhibition of 3H Androgen Binding to Skin (androgen receptor site; [7]) [%] | % Inhibition of 3H Androgen Binding to Skin (androgen receptor site; [8]) [%] | anti-androgenic action (androgen receptor sites) | inhibitory effects on species of Fusarium (Fusarium) | collagen production/formation (human fibroblast cells [3]) | formation of elastin (human fibroblast cells [4]) | increase in elastin production over control cells (human fibroblast cells [4]) [%] | also measured
CCC(O)CCCCC1CCC2CC(=O)CC12 (centres unmarked) [Compound IV] | 25.6 | 41.0 | 58 | 46 | inhibited the androgen receptor site | 2.0 | 43.7 | 25 | 51 | 75 | 83 | anti-androgenic compound operating in the same manner | valuable inhibitory effects | decreased | massive observable increase in the formation of elastin | ~30 | % Progesterone Receptor Inhibition (progesterone receptor): 7%; colony counts (Fusarium; Fusarium): markedly decreased; growth rate (Fusarium; Fusarium): markedly decreased; production of zearalanol (Fusarium; Fusarium): markedly decreased; production of zearalenone (Fusarium; Fusarium): markedly decreased; collagen production/formation (human fibroblast cells [3]; listed as compound IV): decrease in collagen production
CCC(CCCCC1CCC2CC(=O)CC12)OC (centres unmarked) [Compound V, 2-(5-Methoxyhept-1-yl)bicyclo[3.3.0]octan-7-one] | 43.6 | 51.3 | 44 | 38 | inhibited the androgen receptor site | 1.9 | 47.0 | 32 | 55 | 80 | 86 | anti-androgenic compound operating in the same manner | valuable inhibitory effects | decrease in collagen production; also recorded: decreased | massive observable increase in the formation of elastin | ~30 | 
